From patent publication US20100144854A1 (priority 2007, published 2010)

What was measured:
[1] = test system: adenocarcinoma of the large intestine; assay: Example 6: patient with large intestine adenocarcinoma and liver metastases treated with rhodamine 6G; format: in vivo, human; parameters: Nuclear segments / Lymphocytes (line r11) / Erythrocytes / Hemoglobin / Thrombocytes / Leukocytes / Amylase / Chlorine / Serum iron / Cholesterol / Total bilirubin / Bilirubin (line r8, above 'direct'): unit not given here; settings: for Erythrocytes / Hemoglobin / Leukocytes / Thrombocytes / Eosinophils / Cholesterol / Monocytes / Total bilirubin / Potassium / ALT / AST / Bilirubin (line r8, above 'direct') / Serum iron / Lymphocytes (line r11) / Nuclear segments / Total protein / Creatinine / Amylase / Chlorine / Indirect bilirubin fraction / direct (line r9) / indirect (line r11) / Basophils / Nuclear rods: Example 6, Patient N; for Eosinophils: normal 0-5; for Cholesterol: normal 1.66-8.3; for Monocytes: normal 2-9%; for Total bilirubin: normal 2.90-6.54; for Potassium: normal 3.5-6.0; for ALT / AST: normal 5-40; for Bilirubin (line r8, above 'direct'): normal 8.5-20.5; for Serum iron: normal 8.8-27.0; for Lymphocytes (line r11): normal 18-; for Nuclear segments: normal 45-70; for Total protein: normal 65.0-80; for Creatinine: normal 85.0; for Amylase: normal 95-110.0; for Chlorine: normal 135.0-; for Indirect bilirubin fraction / direct (line r9): normal to 25%; for indirect (line r11): normal to 100; for Basophils: normal 0-1%; for Nuclear rods: normal 1-6%
Description: Patient N. Diagnosis: adenocarcinoma of the large intestine. Metastases in the liver. Ascites. Three years previously a resection of the large intestine was performed with insertion of an anastomosis end to end. A full course of polychemo-therapy was given. Two years after the treatment the patient complained of pain in the bottom of the abdomen and tenesmus. The patient presented complaining of acute weakness, constant pain in the abdomen, coughing, dyspnea, ascites, retention of stools. Patient's condition serious, loss of appetite, pale cyanosed skin, abdomen with signs of ascites. […] A lump of irregular shape 2×4 cm in size with irregular edges was detected by computerized tomography in the right renal lobe. A large lump 4×5.4 cm in size and free liquid in the peritoneal cavity were also detected. […] The infusions were administered weekly over the course of 3 months. […] The enemas were administered three times a week over the course of 2 months. […] In the third week of treatment the dyspnea was less severe. In the course of treatment the tumor in the region of the anastomosis decreased in size to 0.2×0.3 cm. After 3 months the treatment was discontinued for 1 month, and was then resumed for a further 2 months.

[2] = test system: Adenocarcinoma of the prostate; assay: Example 7: patient with prostate adenocarcinoma treated with rhodamine 6G; format: in vivo, human; settings: Patient Sh., 55
Description: The patient presented complaining of a sharp pain when urinating and of retention and reddish color of the urine. On examination: Ultrasound scan—prostate approximately 85 cm^3, tumor with irregular contours, 34×40 mm^2 in size. PSA-49.9 […].
Needle biopsy—adenocarcinoma of the prostate.
Diagnosis: Adenocarcinoma of the prostate. The patient refused surgical intervention and chemotherapy.
At night a suppository containing 2% of the preparation was administered.

[3] = Patient N, over the course of the treatment (3 months, 1 month pause, 2 months)

Work on “9-(2-ethoxycarbonyl)phenyl)-3,6-bis(ethylamino)2,7-dimethylxanthyl chloride [rhodamine 6G]” yielded an Erythrocytes ([1]; 09 Dec. 2004) of 4.44, a Hemoglobin ([1]; 09 Dec. 2004) of 115 and a Leukocytes ([1]; 09 Dec. 2004) of 5.2. The Thrombocytes ([1]; 09 Dec. 2004) was 326, the Eosinophils ([1]; 09 Dec. 2004) was 2 and the Cholesterol ([1]; 09 Dec. 2004) was 5.75. It also gave a Monocytes ([1]; 09 Dec. 2004) of 10%, a Total bilirubin ([1]; 09 Dec. 2004) of 8.4 and a Potassium ([1]; 09 Dec. 2004) of 2.28. The ALT ([1]; 09 Dec. 2004) was 69.2 el, the AST ([1]; 09 Dec. 2004) was 45.7 el and the “Bilirubin (line r8, above 'direct')” value ([1]; 09 Dec. 2004) was 3.3. The Serum iron ([1]; 09 Dec. 2004) was 54.8, the “Lymphocytes (line r11)” value ([1]; 09 Dec. 2004) was 58 and the Nuclear segments ([1]; 09 Dec. 2004) was 6. It also gave a Total protein ([1]; 09 Dec. 2004) of 65 g/L, a Creatinine ([1]; 09 Dec. 2004) of 74 µM and an Amylase ([1]; 09 Dec. 2004) of 102.8. The Chlorine ([1]; 09 Dec. 2004) was 114.31, the Indirect bilirubin fraction ([1]; 09 Dec. 2004) was 84% and the “direct (line r9)” value ([1]; 09 Dec. 2004) was 5.1%. For the same substance, the “indirect (line r11)” value ([1]; 09 Dec. 2004) was 89 el, the Erythrocytes ([1]; 09 Jan. 2005) was 4.87 and the Hemoglobin ([1]; 09 Jan. 2005) was 128. The Leukocytes ([1]; 09 Jan. 2005) was 5.3, the Thrombocytes ([1]; 09 Jan. 2005) was 440 and the Basophils ([1]; 09 Jan. 2005) was 1%. The Eosinophils ([1]; 09 Jan. 2005) was 1, the Nuclear rods ([1]; 09 Jan. 2005) was 2% and the Cholesterol ([1]; 09 Jan. 2005) was 7.03. It also gave a Monocytes ([1]; 09 Jan. 2005) of 12%, a Total bilirubin ([1]; 09 Jan. 2005) of 8.0 and a Potassium ([1]; 09 Jan. 2005) of 2.15. The ALT ([1]; 09 Jan. 2005) was 79 el, the AST ([1]; 09 Jan. 2005) was 29.5 el and the “Bilirubin (line r8, above 'direct')” value ([1]; 09 Jan. 2005) was 2.0. The Serum iron ([1]; 09 Jan. 2005) was 42.9, the “Lymphocytes (line r11)” value ([1]; 09 Jan. 2005) was 69 and the Nuclear segments ([1]; 09 Jan. 2005) was 5. It also gave a Total protein ([1]; 09 Jan. 2005) of 82.53 g/L, a Creatinine ([1]; 09 Jan. 2005) of 69 µM and an Amylase ([1]; 09 Jan. 2005) of 110.0. The Chlorine ([1]; 09 Jan. 2005) was 134.2, the Indirect bilirubin fraction ([1]; 09 Jan. 2005) was 90% and the “direct (line r9)” value ([1]; 09 Jan. 2005) was 6.0%. The “indirect (line r11)” value ([1]; 09 Jan. 2005) was 78.0 el, the Erythrocytes ([1]; 9 Oct. 2004) was 3.20 and the Hemoglobin ([1]; 9 Oct. 2004) was 74. The Leukocytes ([1]; 9 Oct. 2004) was 9.2, the Thrombocytes ([1]; 9 Oct. 2004) was 120 and the Basophils ([1]; 9 Oct. 2004) was 1%. It also gave an Eosinophils ([1]; 9 Oct. 2004) of 1, a Nuclear rods ([1]; 9 Oct. 2004) of 0% and a Cholesterol ([1]; 09 Oct. 2004) of 6.21. The Monocytes ([1]; 9 Oct. 2004) was 36%, the Total bilirubin ([1]; 09 Oct. 2004) was 11.0 and the Potassium ([1]; 09 Oct. 2004) was 2.72. For the same substance, the ALT ([1]; 09 Oct. 2004) was 465.8 el, the AST ([1]; 09 Oct. 2004) was 265.7 el and the “Bilirubin (line r8, above 'direct')” value ([1]; 09 Oct. 2004) was 3.0. For the same substance, the Serum iron ([1]; 09 Oct. 2004) was 190.4, the “Lymphocytes (line r11)” value ([1]; 9 Oct. 2004) was 35 and the Nuclear segments ([1]; 9 Oct. 2004) was 2. For the same substance, the Total protein ([1]; 09 Oct. 2004) was 51.23 g/L, the Creatinine ([1]; 09 Oct. 2004) was 118 µM and the Amylase ([1]; 09 Oct. 2004) was 114.0. For the same substance, the Chlorine ([1]; 09 Oct. 2004) was 114.20, the Indirect bilirubin fraction ([1]; 09 Oct. 2004) was 82% and the “direct (line r9)” value ([1]; 09 Oct. 2004) was 8.0%. For the same substance, the “indirect (line r11)” value ([1]; 09 Oct. 2004) was 107.2 el, the Cholesterol ([1]; 24. Nov. 2004) was 5.62 and the Total bilirubin ([1]; 24. Nov. 2004) was 24.2. The Potassium ([1]; 24. Nov. 2004) was 2.32, the ALT ([1]; 24. Nov. 2004) was 326 el and the AST ([1]; 24. Nov. 2004) was 125.8 el. The “Bilirubin (line r8, above 'direct')” value ([1]; 24. Nov. 2004) was 22.3, the Serum iron ([1]; 24. Nov. 2004) was 104.7 and the Total protein ([1]; 24. Nov. 2004) was 62.26 g/L. The Creatinine ([1]; 24. Nov. 2004) was 89 µM, the Amylase ([1]; 24. Nov. 2004) was 140 and the Chlorine ([1]; 24. Nov. 2004) was 115.3. The Indirect bilirubin fraction ([1]; 24. Nov. 2004) was 96%, the “direct (line r9)” value ([1]; 24. Nov. 2004) was 11.9% and the “indirect (line r11)” value ([1]; 24. Nov. 2004) was 102 el. The Erythrocytes ([1]; 24 Nov. 2004) was 3.84, the Hemoglobin ([1]; 24 Nov. 2004) was 90 and the Leukocytes ([1]; 24 Nov. 2004) was 12.0. For the same substance, the Thrombocytes ([1]; 24 Nov. 2004) was 210, the Eosinophils ([1]; 24 Nov. 2004) was 2 and the Nuclear rods ([1]; 24 Nov. 2004) was 1%. The Monocytes ([1]; 24 Nov. 2004) was 12%, the “Lymphocytes (line r11)” value ([1]; 24 Nov. 2004) was 49 and the Nuclear segments ([1]; 24 Nov. 2004) was 6. For the same substance, the feeling of pain ([1]; Patient N, 55, ten days after start, i.v. infusions, enemas, oral solution) was “completely disappeared”, the body weight ([1]; Patient N, after treatment) was “Weight regained” and the blood indices ([1]; Patient N, during treatment) was “marked step-wise improvement”. For the same substance, the “symptoms complained of” value ([1]; Patient N, in 2 years) was “no symptoms”, the “metastases in the liver” value [1, 3] was “no metastases were detected” and the “tumor in the region of the anastomosis” value [1, 3] was “no tumor was detected”. For the same substance, the dyspnea ([1]; Patient N, third week of treatment) was “less severe”, the “pain experienced on urination” value ([2]; 40 days powder oral and 2% suppository) was “decreased in intensity” and the “decrease of size of the prostate, ultrasound” value ([2]; after 40 days, before approximately 85 cm^3) was 40%. For the same substance, the “recurrence of the cancer” value ([2]; over 2 years) was “No recurrence”, the “prostate size, ultrasound” value ([2]; subsequent examination after further 2 weeks oral and enemas) was “approximately 35 cm^3” and the PSA ([2]; subsequent examination, before 49.9 ng/mL) was 1 ng/mL.
